target: T1, human calcium-sensing receptor (CaSR) (Homo sapiens, UniProt P41180); assay: Inhibitory activity on calcium-sensing receptor (CaSR), intracellular calcium increase as indicator (FLIPR, CHO/hCaSR); type: cell-based; conditions: CHO cells stably expressing human CaSR; inhibition of intracellular Ca increase induced by extracellular CaCl2
T1 construct: expressed in transfected cells
T1 sequence (P41180 20-1078): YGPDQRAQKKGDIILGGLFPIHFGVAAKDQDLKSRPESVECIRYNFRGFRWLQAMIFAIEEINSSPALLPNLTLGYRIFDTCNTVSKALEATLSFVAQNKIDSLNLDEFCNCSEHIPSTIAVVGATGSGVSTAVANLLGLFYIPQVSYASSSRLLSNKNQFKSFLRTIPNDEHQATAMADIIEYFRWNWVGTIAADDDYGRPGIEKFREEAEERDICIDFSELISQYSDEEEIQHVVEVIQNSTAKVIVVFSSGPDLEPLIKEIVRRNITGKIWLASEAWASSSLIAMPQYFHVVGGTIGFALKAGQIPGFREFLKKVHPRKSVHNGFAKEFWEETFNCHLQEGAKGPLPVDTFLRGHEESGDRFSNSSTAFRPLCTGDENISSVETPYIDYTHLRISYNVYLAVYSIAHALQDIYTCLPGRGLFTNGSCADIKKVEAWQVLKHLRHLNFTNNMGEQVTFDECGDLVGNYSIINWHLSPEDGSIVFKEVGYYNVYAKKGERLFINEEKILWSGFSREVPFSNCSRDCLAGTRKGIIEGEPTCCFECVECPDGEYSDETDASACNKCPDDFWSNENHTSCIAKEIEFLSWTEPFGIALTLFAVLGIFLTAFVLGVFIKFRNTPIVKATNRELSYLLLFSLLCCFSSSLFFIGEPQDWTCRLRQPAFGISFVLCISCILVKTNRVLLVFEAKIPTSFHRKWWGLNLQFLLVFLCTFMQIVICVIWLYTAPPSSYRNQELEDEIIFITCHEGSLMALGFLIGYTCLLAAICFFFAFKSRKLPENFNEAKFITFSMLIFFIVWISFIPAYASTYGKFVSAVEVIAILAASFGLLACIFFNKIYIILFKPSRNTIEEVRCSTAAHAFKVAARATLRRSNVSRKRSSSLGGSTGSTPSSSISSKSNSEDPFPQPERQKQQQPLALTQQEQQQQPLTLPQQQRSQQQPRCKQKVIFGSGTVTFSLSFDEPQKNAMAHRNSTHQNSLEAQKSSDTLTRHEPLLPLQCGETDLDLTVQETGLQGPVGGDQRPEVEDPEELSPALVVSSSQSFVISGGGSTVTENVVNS
Method: Evaluation of inhibitory activity on calcium-sensing receptor (CaSR) using intracellular calcium increase as an indicator
The preparation which is prepared by adding CHO/hCaSR to F12 medium (manufactured by Invitrogen) containing 10% fetal bovine serum to have 2×10^5 cells/mL was applied to a 384-well in an amount of 50 μL/well, and then incubated overnight in a CO2 incubator. The culture supernatant was completely removed, the assay buffer (20 mM HEPES, HBSS (Ca and Mg free) containing 2.5 mM probenecid, pH 7.4) containing Calcium 3 (manufactured by Molecular Devices), i.e., a fluorescent intracellular calcium indicator, was added thereto in an amount of 25 μL/well, and the mixture was maintained for 1 hour in a CO2 incubator. Meanwhile, Calcium 3 was prepared according to the protocol enclosed in FLIPR Calcium 3 Assay Kit (manufactured by Molecular Devices). After maintaining it for 1 hour, a solution in which the test compound is prepared to have 2.1 to 20,000 nM (final concentration of 1.05 to 10,000 nM) by an assay buffer was added thereto in an amount of 25 μL/well, and maintained for 15 minutes in a CO2 incubator. Then, the CaCl2 solution prepared to have […] by using the assay buffer was added in an amount of 25 μL/well, and the resulting intracellular Ca increase (i.e., fluorescence intensity) was measured over time using a fluorescence imaging plate reader (FLIPR, manufactured by Molecular Devices). From the data obtained, the difference between the fluorescence intensity before the addition of CaCl2 solution and the maximum fluorescence intensity after the addition of CaCl2 solution was calculated, and the 50% inhibition concentration (IC50) of the test compound was obtained.

IC50 [µM] | SMILES
≤ 3.29 | CCC[C@@H](OC[C@H](O)CN1CCC[C@H]1Cc1ccc(C)c(F)c1)c1ccc(C)cc1CCC(=O)O [Example 64]
≤ 3.19 | CCC[C@@H](OC[C@H](O)CN1CCC[C@H]1Cc1ccc(C)c(F)c1)c1cccc(OC)c1CCC(=O)O [Example 65]
≤ 3.27 | CC[C@@H](OC[C@H](O)CN1CCC[C@H]1Cc1ccc(C)c(F)c1)c1cc(F)c(C)cc1CCC(=O)O [Example 69]
≤ 3.09 | CC[C@@H](OC[C@H](O)CN1CCC[C@H]1Cc1ccc(C)c(F)c1)c1cc(F)c(C)cc1CCCCC(=O)O [Example 70]
≤ 3.28 | CCOc1cccc([C@@H](C)OC[C@H](O)CN2CCC[C@H]2Cc2ccc(C)c(F)c2)c1CCC(=O)O [Example 71]
≤ 3.1 | CCOc1cccc([C@@H](C)OC[C@H](O)CN2CCC[C@H]2Cc2ccc(C)c(F)c2)c1CCCCC(=O)O [Example 72]
≤ 3.19 | Cc1ccc(C[C@@H]2CCCN2C[C@@H](O)CO[C@H](C)c2cccc(OC(C)C)c2CCC(=O)O)cc1F [Example 73]
≤ 3.02 | Cc1ccc(C[C@@H]2CCCN2C[C@@H](O)CO[C@H](C)c2cccc(OC(C)C)c2CCCCC(=O)O)cc1F [Example 74]
≤ 3.14 | Cc1ccc(C[C@@H]2CCCN2C[C@@H](O)CO[C@H](C)c2cccc(OC(F)F)c2CCC(=O)O)cc1F [Example 75]
≤ 3.29 | Cc1ccc(C[C@@H]2CCCN2C[C@@H](O)CO[C@H](C)c2ccccc2CCCCCC(=O)O)cc1F [Example 76]
≤ 3.2 | Cc1ccc(C[C@@H]2CCCN2C[C@@H](O)CO[C@H](C)c2ccccc2CCCCCCC(=O)O)cc1F [Example 77]
≤ 3.35 | Cc1ccc(C[C@@H]2CCCN2C[C@@H](O)CO[C@H](C)c2ccc(Cl)cc2CCC(=O)O)cc1F [Example 78]
≤ 3.35 | Cc1ccc(C[C@@H]2CCCN2C[C@@H](O)CO[C@H](C)c2cc(Cl)ccc2CCC(=O)O)cc1F [Example 79]
≤ 3.35 | Cc1ccc(C[C@@H]2CCCN2C[C@@H](O)CO[C@H](C)c2cccc(Cl)c2CCC(=O)O)cc1F [Example 80]
≤ 3.16 | Cc1ccc(C[C@@H]2CCCN2C[C@@H](O)CO[C@H](C)c2ccc(Cl)cc2CCCCC(=O)O)cc1F [Example 81]
≤ 3.45 | C[C@@H](OC[C@H](O)CN1CCC[C@H]1Cc1ccc(F)c(Cl)c1)c1ccccc1CCC(=O)O [Example 83]
≤ 3.48 | Cc1ccc(C[C@@H]2CCCN2C[C@@H](O)CO[C@H](C)c2ccccc2CCC(=O)O)cc1Cl [Example 84]
≤ 3.33 | C[C@@H](OC[C@H](O)CN1CCC[C@H]1Cc1ccc(Cl)c(Cl)c1)c1ccccc1CCC(=O)O [Example 88]
≤ 3.38 | CCc1cc(C[C@@H]2CCCN2C[C@@H](O)CO[C@H](C)c2ccccc2CCC(=O)O)ccc1Cl [Example 89]
≤ 3.35 | Cc1ccc(C[C@@H]2CCCN2C[C@@H](O)CO[C@H](C)c2cccc(F)c2CCC(=O)O)cc1Cl [Example 90]
≤ 3.32 | C[C@@H](OC[C@H](O)CN1CCC[C@H]1Cc1ccc(Cl)c(F)c1)c1cccc(F)c1CCC(=O)O [Example 91]
≤ 3.21 | C[C@@H](OC[C@H](O)CN1CCC[C@H]1Cc1ccc(Cl)c(Cl)c1)c1cccc(F)c1CCC(=O)O [Example 92]
≤ 3.25 | CCc1cc(C[C@@H]2CCCN2C[C@@H](O)CO[C@H](C)c2cccc(F)c2CCC(=O)O)ccc1Cl [Example 93]
≤ 3.25 | CC[C@@H](OC[C@H](O)CN1CCC[C@H]1Cc1ccc(C)c(F)c1)c1cc(Cl)ccc1CCC(=O)O [Example 94]
≤ 3.25 | CC[C@@H](OC[C@H](O)CN1CCC[C@H]1Cc1ccc(C)c(F)c1)c1ccc(Cl)cc1CCC(=O)O [Example 95]
≤ 3.21 | C[C@@H](OC[C@H](O)CN1CCC[C@H]1Cc1ccc(Cl)c(Cl)c1)c1cc(F)ccc1CCC(=O)O [Example 96]

IC50 [µM] | SMILES
≤ 3.24 | Cc1ccc([C@@H](C)OC[C@H](O)CN2CCC[C@H]2Cc2ccc(Cl)c(Cl)c2)c(CCC(=O)O)c1 [Example 97]
≤ 3.28 | CCc1cc(C[C@@H]2CCCN2C[C@@H](O)CO[C@H](C)c2ccc(C)cc2CCC(=O)O)ccc1Cl [Example 98]
≤ 3.25 | CCc1cc(C[C@@H]2CCCN2C[C@@H](O)CO[C@H](C)c2cc(F)ccc2CCC(=O)O)ccc1Cl [Example 99]
≤ 3.03 | CC[C@@H](OC[C@H](O)CN1CCC[C@H]1Cc1ccc(Cl)c(Cl)c1)c1ccc(Cl)cc1CCC(=O)O [Example 100]
≤ 3.06 | CCc1cc(C[C@@H]2CCCN2C[C@@H](O)CO[C@H](CC)c2ccc(Cl)cc2CCC(=O)O)ccc1Cl [Example 101]
≤ 3.15 | CC[C@@H](OC[C@H](O)CN1CCC[C@H]1Cc1ccc(Cl)c(Cl)c1)c1ccc(C)cc1CCC(=O)O [Example 102]
≤ 3.19 | CCc1cc(C[C@@H]2CCCN2C[C@@H](O)CO[C@H](CC)c2ccc(C)cc2CCC(=O)O)ccc1Cl [Example 103]
≤ 3.12 | CC[C@@H](OC[C@H](O)CN1CCC[C@H]1Cc1ccc(Cl)c(Cl)c1)c1cc(F)ccc1CCC(=O)O [Example 104]
≤ 3.16 | CCc1cc(C[C@@H]2CCCN2C[C@@H](O)CO[C@H](CC)c2cc(F)ccc2CCC(=O)O)ccc1Cl [Example 105]
≤ 3.1 | C[C@@H](OC[C@H](O)CN1CCC[C@H]1Cc1ccc(Cl)c(Cl)c1)c1cc(F)cc(F)c1CCC(=O)O [Example 106]
≤ 3.14 | CCc1cc(C[C@@H]2CCCN2C[C@@H](O)CO[C@H](C)c2cc(F)cc(F)c2CCC(=O)O)ccc1Cl [Example 107]
≤ 3.12 | CC[C@@H](OC[C@H](O)CN1CCC[C@H]1Cc1ccc(Cl)c(Cl)c1)c1cccc(F)c1CCC(=O)O [Example 108]
≤ 3.16 | CCc1cc(C[C@@H]2CCCN2C[C@@H](O)CO[C@H](CC)c2cccc(F)c2CCC(=O)O)ccc1Cl [Example 109]
≤ 3.02 | CC[C@@H](OC[C@H](O)CN1CCC[C@H]1Cc1ccc(Cl)c(Cl)c1)c1cc(F)cc(F)c1CCC(=O)O [Example 110]
≤ 3.05 | CCc1cc(C[C@@H]2CCCN2C[C@@H](O)CO[C@H](CC)c2cc(F)cc(F)c2CCC(=O)O)ccc1Cl [Example 111]
≤ 3.25 | CC[C@@H](OC[C@H](O)CN1CCC[C@H]1Cc1ccc(C)c(F)c1)c1cccc(Cl)c1CCC(=O)O [Example 112]
≤ 3.03 | CC[C@@H](OC[C@H](O)CN1CCC[C@H]1Cc1ccc(Cl)c(Cl)c1)c1cccc(Cl)c1CCC(=O)O [Example 113]
≤ 3.06 | CCc1cc(C[C@@H]2CCCN2C[C@@H](O)CO[C@H](CC)c2cccc(Cl)c2CCC(=O)O)ccc1Cl [Example 114]
≤ 3.05 | CC[C@@H](OC[C@H](O)CN1CCC[C@H]1Cc1ccc(Cl)c(Cl)c1)c1cccc(OC)c1CCC(=O)O [Example 115]
≤ 3.09 | CCc1cc(C[C@@H]2CCCN2C[C@@H](O)CO[C@H](CC)c2cccc(OC)c2CCC(=O)O)ccc1Cl [Example 116]
≤ 3.02 | CC[C@@H](OC[C@H](O)CN1CCC[C@H]1Cc1ccc(Cl)c(Cl)c1)c1cc(F)c(F)cc1CCC(=O)O [Example 117]
≤ 3.04 | CC[C@@H](OC[C@H](O)CN1CCC[C@H]1Cc1ccc(Cl)c(Cl)c1)c1cc(F)c(C)cc1CCC(=O)O [Example 118]
≤ 3.08 | CCc1cc(C[C@@H]2CCCN2C[C@@H](O)CO[C@H](CC)c2cc(F)c(C)cc2CCC(=O)O)ccc1Cl [Example 119]
≤ 3.15 | CC[C@@H](OC[C@H](O)CN1CCC[C@H]1Cc1ccc(Cl)c(Cl)c1)c1cccc(C)c1CCC(=O)O [Example 120]
≤ 3.05 | CCc1cc(C[C@@H]2CCCN2C[C@@H](O)CO[C@H](CC)c2cc(F)c(F)cc2CCC(=O)O)ccc1Cl [Example 121]
